Reference: the NIST ThermoML archive (doi:10.1016/j.fluid.2006.09.021)

Settings: Liquid, Closed cell (Static) method

S [hydrogen sulfide]
Settings	vapor or sublimation pressure [kPa]
223.19 K	167.4
228.2 K	209.1
233.11 K	257.4
238.04 K	313.9
243.04 K	380.1
248.01 K	456.7
252.97 K	544.2
258.01 K	644.5
263 K	757.7
268.02 K	885.7
273.17 K	1032.3
278.24 K	1194.1
283.26 K	1371.1
288.31 K	1566.6
293.1 K	1767.9
293.3 K	1779.5
298.41 K	2022.2
303.08 K	2259.6
313.11 K	2847.2
323.18 K	3540.4
333.17 K	4339.5
343.16 K	5261.2
353.17 K	6319.2
363.16 K	7533
373.15 K	8932.1
